{
  "source": "ChEMBL document CHEMBL6134909",
  "about": "(Eur J Med Chem, 2025)",
  "key": {"[1]": {"assay": "Metabolic stability in human plasma at 2 uM measured after 60 mins by LC-MS/MS analysis", "format": "ADME, cell-free", "settings": "1 h"}, "[2]": {"assay": "Metabolic stability in mouse plasma at 2 uM measured after 60 mins by LC-MS/MS analysis", "format": "ADME, cell-free", "settings": "1 h"}, "[3]": {"assay": "Metabolic stability in human liver microsomes assessed as compound remaining at 2 to 10 uM measured after 60 mins in presence of NADPH by LC-MS/MS analysis", "format": "ADME, Microsome", "settings": "dose 2-10 µM, read-out: Stability"}, "[4]": {"assay": "Cytotoxicity against human A549 cells incubated for 48 hrs by CellTiter-Glo Luminescent Cell Viability Assay", "format": "toxicity, cell-based"}, "Influenza A virus [5]": {"tested_on": "Influenza A virus", "assay": "Anti-viral activity against wild-type Influenza A virus H7N1 pseudotype infected in human A549 cells assessed as inhibition of viral entry incubated for 48 hrs by Neolite Reporter Gene Assay", "format": "functional, organism-based", "settings": "H7N1, A549, 48 h"}, "[6]": {"assay": "Cmax in CD1 mouse at 25 mg/kg, ip", "format": "ADME, organism-based", "settings": "in vivo"}, "[7]": {"assay": "Metabolic stability in human liver microsomes assessed as compound remaining at 2 to 10 uM measured after 60 mins in absence of NADPH by LC-MS/MS analysis", "format": "ADME, Microsome", "settings": "dose 2-10 µM, read-out: Stability"}, "[8]": {"assay": "Tmax in CD1 mouse at 25 mg/kg, ip", "format": "ADME, organism-based", "settings": "in vivo"}, "[9]": {"assay": "Metabolic stability in BALB/c mouse liver microsomes assessed as compound remaining at 2 to 10 uM measured after 60 mins in presence of NADPH by LC-MS/MS analysis", "format": "ADME, Microsome", "settings": "dose 2-10 µM, read-out: Stability"}, "[10]": {"assay": "Half life in CD1 mouse at 25 mg/kg, ip", "format": "ADME, organism-based", "settings": "in vivo"}, "[11]": {"assay": "AUC (infinity) in CD1 mouse at 25 mg/kg, ip", "format": "ADME, organism-based", "settings": "in vivo"}, "[12]": {"assay": "MRT (infinity) in CD1 mouse at 25 mg/kg, ip", "format": "ADME, organism-based", "settings": "in vivo"}, "[13]": {"assay": "Apparent volume of distribution in CD1 mouse at 25 mg/kg, ip", "format": "ADME, organism-based", "settings": "in vivo"}, "[14]": {"assay": "Clearance in CD1 mouse at 25 mg/kg, ip", "format": "ADME, organism-based", "settings": "in vivo"}, "[15]": {"assay": "Metabolic stability in BALB/c mouse liver microsomes assessed as compound remaining at 2 to 10 uM measured after 60 mins in absence of NADPH by LC-MS/MS analysis", "format": "ADME, Microsome", "settings": "dose 2-10 µM, read-out: Stability"}, "Influenza A virus [16]": {"tested_on": "Influenza A virus", "assay": "Anti-viral activity against Influenza A virus H7N1 pseudotype infected in human A549 cells assessed as inhibition of viral entry incubated for 48 hrs by Neolite Reporter Gene Assay", "format": "functional, organism-based", "settings": "H7N1, A549, 48 h"}},
  "data": [
    {"smiles": "Oc1ccc(-c2nc3ncccn3c2NC2CCCCC2)c(F)c1", "values": [
      {"measurement": "Stability", "setting": "[1]", "result": "Stable"},
      {"measurement": "Stability", "setting": "[2]", "result": "Stable"},
      {"measurement": "remaining at 1 h, up to 10 µM", "setting": "[3]", "result": 68.9, "unit": "%"},
      {"measurement": "CC50 at 48 h", "setting": "[4]", "result": "> 100", "unit": "µM"},
      {"measurement": "EC50", "setting": "Influenza A virus [5]", "result": 110, "unit": "nM"},
      {"measurement": "Cmax", "setting": "[6]", "result": 14500, "unit": "ng/mL"},
      {"measurement": "remaining at 1 h, up to 10 µM", "setting": "[7]", "result": 115, "unit": "%"},
      {"measurement": "Tmax", "setting": "[8]", "result": 0.083, "unit": "h"},
      {"measurement": "remaining at 1 h, up to 10 µM", "setting": "[9]", "result": 72.7, "unit": "%"},
      {"measurement": "half-life", "setting": "[10]", "result": 217, "unit": "min"},
      {"measurement": "AUC(0-inf)", "setting": "[11]", "result": 3660, "unit": "ng·h/mL"},
      {"measurement": "MRT inf", "setting": "[12]", "result": 0.842, "unit": "h"},
      {"measurement": "Vz", "setting": "[13]", "result": 35639, "unit": "mL/kg"},
      {"measurement": "CL/F", "setting": "[14]", "result": 114, "unit": "mL/min/kg"},
      {"measurement": "remaining at 1 h, up to 10 µM", "setting": "[15]", "result": 101, "unit": "%"},
      {"measurement": "EC50", "setting": "Influenza A virus [16]", "result": 90, "unit": "nM"}
    ]},
    {"smiles": "Fc1cc(OCc2ccc(C(F)(F)F)cc2)ccc1-c1nc2ncccn2c1NC1CCCCC1", "values": [
      {"measurement": "Stability", "setting": "[1]", "result": "Stable"},
      {"measurement": "Stability", "setting": "[2]", "result": "Stable"},
      {"measurement": "remaining at 1 h, up to 10 µM", "setting": "[3]", "result": 36, "unit": "%"},
      {"measurement": "CC50 at 48 h", "setting": "[4]", "result": "> 100", "unit": "µM"},
      {"measurement": "Cmax", "setting": "[6]", "result": 2930, "unit": "ng/mL"},
      {"measurement": "remaining at 1 h, up to 10 µM", "setting": "[7]", "result": 105, "unit": "%"},
      {"measurement": "Tmax", "setting": "[8]", "result": 2.67, "unit": "h"},
      {"measurement": "remaining at 1 h, up to 10 µM", "setting": "[9]", "result": 60.5, "unit": "%"},
      {"measurement": "half-life", "setting": "[10]", "result": 229, "unit": "min"},
      {"measurement": "AUC(0-inf)", "setting": "[11]", "result": 33900, "unit": "ng·h/mL"},
      {"measurement": "MRT inf", "setting": "[12]", "result": 6.25, "unit": "h"},
      {"measurement": "Vz", "setting": "[13]", "result": 4226, "unit": "mL/kg"},
      {"measurement": "CL/F", "setting": "[14]", "result": 12.8, "unit": "mL/min/kg"},
      {"measurement": "remaining at 1 h, up to 10 µM", "setting": "[15]", "result": 104, "unit": "%"},
      {"measurement": "EC50", "setting": "Influenza A virus [16]", "result": 470, "unit": "nM"}
    ]}
  ]
}
